For 3 molecules, IC50 results are on record in ChEMBL document CHEMBL1157939, “Bromophycolides C-I from the Fijian red alga Callophycus serratus” (J Nat Prod, 2006).

One test deals with Candida albicans. In words: Antifungal activity against amphotericin B-resistant Candida albicans after 12 to 15 hrs by alamar blue assay. Format: functional, organism-based. On the technique in general: Alamar Blue is a resazurin reagent that responds to reducing activity.
The test system of another test is DU-4475. The test can be described thus: Antineoplastic activity against human DU4475 cells after 72 hrs by MTS reduction assay. The settings on record: DU-4475, 72 h. Format: functional, cell-based. Background: Tetrazolium assays rely on reduction of a dye to a coloured formazan, in cell work by metabolically active cells.

Turning to `C=C1CC[C@H](Br)[C@@]2(C)CC[C@@H]3O[C@@]3(C)CC[C@@H](C(C)(C)O)OC(=O)c3ccc(O)c(c3)C[C@H]12` [BROMOPHYCOLIDE F], the IC50 (usually the midpoint of a concentration-inhibition curve) in the test with Candida albicans was 240 µM.
The same measure, in the same setting: the same measure for `C=C1CC[C@H](Br)[C@@]2(C)CC[C@@H](Br)[C@@](C)(O)CC[C@H](O)C(C)(C)OC(=O)c3ccc(O)c(c3)C[C@H]12` [BROMOPHYCOLIDE I]: 208 µM.
In the test on DU-4475, `C=C1CC[C@H](Br)[C@@]2(C)CC[C@@H](Br)[C@@](C)(O)CC[C@@H](Br)C(C)(C)OC(=O)c3ccc(O)c(c3)C[C@H]12` [BROMOPHYCOLIDE H] yielded an IC50 of 3.88 µM.
